Data published in patent US20260152527A1, “NOVEL MELANOCORTIN ANALOGS” (priority 2022, published 2026).
≈ marks a conversion by molar mass, not a printed value. Like-named read-outs stand apart in the source and are kept apart here. Positions of bridges follow the written chain, without caps; N, C: chain ends. Non-standard residues stand in square brackets, D forms with d. Residues, ends and D or L forms follow the SMILES beside them. Triazole bridges read from a SMILES are 1,4-linked. *: point of attachment. Benzoyl(3,5-(OH)2) = O=C(c1cc(O)cc(O)c1)*; Lys(N3) = [N-]=[N+]=NCCCC[C@H](N)C(=O)O; dPhe(4-F) = N[C@H](Cc1ccc(F)cc1)C(=O)O; Aad = N[C@@H](CCCC(=O)O)C(=O)O; Nle = CCCC[C@H](N)C(=O)O; Pra = C#CC[C@H](N)C(=O)O

Assays:
[1] = target: T1, human recombinant MC5R (Homo sapiens, UniProt P33032); assay: Ca2+ signalling functional assay, MC5R stable cell line (CHO-K1/Ga15); type: cell-based; conditions: for IC50: calcium flux functional assay
T1 construct: host or cells: CHO-K1/Ga15
Method: The Ca^2+ signalling functional assay was performed on a human recombinant MC5R stable cell line (CHO-K1/Ga15, GenScript). The cells were cultured at 37° C. and 5% C02 with culture medium (90% Ham's F-12K (Kaighn's)+10% FBS+400 μg/mL G418+100 μg/mL Hygromycin B). Cells were washed with PBS and then detached by incubation with 0.05% (w/v) Trypsin EDTA at 37° C. for 2 to 5 mins. Detached cells were suspended in Ham's F-12K (Kaighn's) (containing 10% FBS) and a 50 μL cell suspension is seeded into each well of a 384-well assay plate at a density of 15,000 cells/well. Cells were allowed to settle overnight at 37° C., 5% CO2. […] Then, 100 nL of compounds were transferred to the compound plate by the Echo machine. Thirty microliter assay buffer was added to the compounds plate and then shaken for 20-40 minutes. The plates were placed on the FLIPR and 15 μL of the compound was added to each well, then calcium flux signal was measured.

[2] = Thermodynamic solubility study in water; type: physicochemical
Method: The study was conducted in water. Water was added into compound powder to make a 10 mg/mL solution. Sample tubes were shaken at the vibrator for 1 hour (1000 rpm) and then equilibrated overnight at room temperature. Samples were centrifuged at 12000 rpm for 10 min to precipitate undissolved particles. Supernatants were transferred from tubes to a new plate. An aliquot of the supernatant after centrifugation was taken from each well, then analyzed by LC-MS/MS. The concentration of the supernatants was quantified by a standard curve.

[3] = rabbit
Text: (§1) To evaluate the effects of the peptide formulations following topical administration and subconjunctival injection a study in rabbits was undertaken. Animals were acclimated to the study and, upon completion of the acclimation period, each animal was physically examined for determination of suitability for study participation. Animals determined to be in good health were randomized into study groups to achieve averaged mean body weight in each group. (N=24; 3 animals per study group) Animals will be uniquely identified by corresponding cage card number and ear tag.
(§2) For topical ocular dosing the designated peptide formulations (35 L) were administered to the eye of each animal using a calibrated pipette. With the animal manually restrained, the upper eyelid of the eye was gently elevated to expose the cornea. Treatment was then be applied to the cornea without contacting the eye with the pipette tip. One topical drop was applied per eye for four days. Tissue collection (aqueous humor) occurred 30 minutes after last dose.
(§3) A veterinary ophthalmologist performed complete ocular examinations using a slit lamp biomicroscope and indirect ophthalmoscope to evaluate ocular surface morphology and anterior and posterior segment inflammation on all animals prior to injection to serve as a baseline for enrollment into the study as well as on specific study days. Animals were not tranquilized for the examinations.
(§4) At least 1.0 mL of whole blood was drawn from the marginal ear vein or cardiac puncture (terminal bleed only) into K2EDTA tubes for plasma collection. After collection, the tubes were gently mixed by inverting the tubes 5-8 times. Blood samples were stored on wet ice prior to plasma processing. The samples were centrifuged at 4° C. for 10 minutes at 2000 g in a swinging bucket refrigerated centrifuge. Within 20 minutes of the blood collection time, the clear plasma was transferred to prelabelled polypropylene tubes, snap frozen, and stored frozen at approximately −80° C.
(§5) Following euthanasia, eyes were enucleated and marked at the 12:00 position. Aqueous humor was removed via a 27 or 30 gauge syringe following a 10-15 second rinse with PBS and blot with Kimwipe, and snap frozen by immersing in liquid nitrogen. The whole globe was then snap frozen in liquid nitrogen and stored at −80° C. to be held for potential dissection. All samples were placed into individual vials and weighed. The plasma and aqueous humor were collected.
(§6) The peptides were evaluated for their ocular tolerability and pharmacokinetics following repeated (QID×4 days) topical instillation or a single subconjunctival injection in rabbits. The study examined penetration into the anterior chamber and concentrations in the plasma by measuring at a single time point.

[4] = target: T2, human recombinant MC4R (Homo sapiens, UniProt P32245); assay: Ca2+ signalling functional assay, MC4R stable cell line (CHO-K1/Gα15); type: cell-based
T2 construct: host or cells: CHO-K1/Gα15
Method: The Ca^2+ signalling functional assay was performed on a human recombinant MC4R stable cell line (CHO-K1/Gα15, GenScript). The cells were cultured at 37° C. and 5% CO2 with culture medium (90% Ham's F-12K (Kaighn's)+10% FBS+8 μg/mL Puromycin+100 μg/mL Hygromycin B). Cells were washed with PBS and then detached by incubation with 0.05% (w/v) Trypsin EDTA at 37° C. for 2-5 mins. Detached cells were suspended in Ham's F-12K (Kaighn's) (containing 10% FBS) and a 50 μL cell suspension was seeded into each well of a 384-well assay plate at a density of 15,000 cells/well. Cells were allowed to settle overnight at 37° C., 5% CO2. The next day, the assay plate was centrifuged and the media was replaced with dye (1×) in assay buffer (containing HBSS, HEPES 20 mM and probenecid 1 mM) and incubated for 1 h at 37° C. […] Then, 100 nL of compounds were transferred to the compound plate by the Echo machine. 30 μL assay buffer was added to the compounds plate and then shaken for 20 to 40 minutes. The plates were placed on the FLIPR and 15 μL of the compound was added to each well, then calcium flux signal was measured.

[5] = target: T3, human recombinant MC1R (Homo sapiens, UniProt Q01726); assay: cyclic AMP (cAMP) functional assay, MC1R stable cell line (CHO-K1); type: cell-based; conditions: for IC50: cAMP functional assay;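 for all read-outs here: cells with test compound for 60 min at room temperature in buffer containing IBMX, then cAMP quantified by Eu-cAMP tracer and ULight anti-cAMP detection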
T3 construct: host or cells: CHO-K1
Method: The cyclic AMP (cAMP) functional assay was performed on a human recombinant MC1R stable cell line (CHO-K1, GenScript). The cells were cultured at 37° C. and 5% CO2 with culture medium (90% Ham's F-12K (Kaighn's)+10% FBS+400 μg/mL G418). […] Then, 100 nL of compounds were transferred to the assay plate by the Echo machine. Cells were washed with PBS and then detached by incubation with 0.05% (w/v) Trypsin EDTA at 37° C. for 2 to 5 mins. Cells were collected with stimulation buffer (1×HBSS with 5 mM HEPES+0.2 mM IBMX+0.1% BSA) and 10 ul of cells (the density of 2,500 cells/well) solution was transferred to assay plate, centrifuged at 600 rpm for 3 min and then incubated with compounds at room temperature for 60 min. After that, 5 μL 4×Eu-cAMP tracer solution and 5 μL 4×ULight™-anti-cAMP solution was added into the cells, centrifuged at 600 rpm for 3 min and incubated for 60 min. The cAMP signal was detected with Envision® Multimode Plate Reader (PerkinElmer).

[6] = In vivo topical administration tissue distribution study, minipig; conditions: topical 5 mg/mL BID
Method: Animals were acclimated to the study environment for a minimum of 1 week. […] Examinations included, but were not limited to, the skin and external ears, eyes, and abdomen, neurological behavior, and general body condition.
Treatment was administered twice daily (BID) with approximately 6-8 hours between each BID dose, with tissue collection one hour after the last dose. Tissues and blood collected include plasma, aqueous humor, iris/ciliary body, vitreous humor, eye cup containing the retinal pigment epithelium, choroid, sclera, cornea, retina, optic nerve, and brain.
Blood (3 mL) was collected IV or ICAR for terminal collections and placed into K2EDTA tubes for plasma acquisition. […] Blood samples were stored on wet ice for up to 30 minutes prior to plasma processing.
Following euthanasia, eyes were enucleated and rinsed twice with fresh ice-cold PBS. Aqueous humor was removed via a 27 or 30 G syringe, weighed in polypropylene screw cap tubes, and snap frozen by immersing in liquid nitrogen. Eyes were dissected while frozen. All tissues were placed into individual vials, weighed, and snap frozen. The brain was collected and weighed. The hypothalamus, hippocampus and remaining brain was then dissected and weighed. 100-200 mg of each section was placed in pre-weighed polypropylene tubes, reweighed, and snap frozen. The remaining tissue was discarded. All tissues were stored frozen at −80° C. on dry ice.
The observed distribution pattern was consistent with that observed in the rat study. […] As also shown in FIG. 14, all three peptides were detected in the CNS of the animals, with no behavioral or metabolic changes noted in these animals despite the significant exposure. The foregoing results therefor confirm that the peptides disclosed herein can be delivered topically for retinal indications.

[7] = in vivo; conditions: rabbit, topical or ocular, 3 mg/ml solution, 35 L per eye, Concentrations (ng/mL) in Rabbit Aqueous Humor
Text: as §1, §2, §3, §4, §5, §6

T3 sequence (Q01726 whole entry): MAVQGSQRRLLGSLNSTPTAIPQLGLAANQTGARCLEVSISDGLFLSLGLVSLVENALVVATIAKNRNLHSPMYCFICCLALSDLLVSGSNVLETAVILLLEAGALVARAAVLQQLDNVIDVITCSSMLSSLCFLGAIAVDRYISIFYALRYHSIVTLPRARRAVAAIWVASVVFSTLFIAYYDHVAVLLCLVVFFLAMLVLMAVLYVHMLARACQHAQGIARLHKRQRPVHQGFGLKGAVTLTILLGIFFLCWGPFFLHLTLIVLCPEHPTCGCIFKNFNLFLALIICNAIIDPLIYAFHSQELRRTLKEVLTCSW
T2 sequence (P32245 whole entry): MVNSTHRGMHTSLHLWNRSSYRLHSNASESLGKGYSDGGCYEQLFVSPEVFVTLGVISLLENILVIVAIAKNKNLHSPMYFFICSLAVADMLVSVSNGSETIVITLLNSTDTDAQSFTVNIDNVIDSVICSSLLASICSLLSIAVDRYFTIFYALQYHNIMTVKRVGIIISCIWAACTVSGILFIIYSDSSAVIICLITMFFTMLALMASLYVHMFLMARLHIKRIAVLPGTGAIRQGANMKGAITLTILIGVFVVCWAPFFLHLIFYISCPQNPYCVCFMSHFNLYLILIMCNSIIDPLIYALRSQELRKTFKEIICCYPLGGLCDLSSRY
T1 sequence (P33032 whole entry): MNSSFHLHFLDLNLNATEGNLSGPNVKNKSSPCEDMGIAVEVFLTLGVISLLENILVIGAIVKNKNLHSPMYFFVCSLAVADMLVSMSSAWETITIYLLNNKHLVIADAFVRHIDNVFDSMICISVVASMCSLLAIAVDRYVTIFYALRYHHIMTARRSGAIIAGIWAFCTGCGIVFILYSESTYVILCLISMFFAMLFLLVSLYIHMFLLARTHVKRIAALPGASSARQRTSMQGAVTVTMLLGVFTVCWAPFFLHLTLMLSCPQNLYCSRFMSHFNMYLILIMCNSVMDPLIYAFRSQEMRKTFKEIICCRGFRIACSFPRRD

Structure (SMILES): CCCC[C@H](NC(C)=O)C(=O)N[C@H]1CCCCn2cc(nn2)C[C@@H](C(N)=O)NC(=O)[C@H](Cc2c[nH]c3ccccc23)NC(=O)[C@H](CCCNC(=N)N)NC(=O)[C@@H](Cc2ccccc2)NC(=O)[C@H](Cc2cnc[nH]2)NC1=O [KR-009, Ac-Nle-[Lys(N3)-His-DPhe-Arg-Trp-Pra]-NH2] (Ac-[Nle][Lys(N3)]H[dF]RW[Pra]-NH2; triazole 2-7)
- EC50 [1]: 140 nM
- IC50 [1]: 140 nM
- solubility [2]: > 5000 µg/mL
- Topical Ocular Permeability (nM ± SEM) [3]: 1.43 ± 1.01 nM
- EC50 [4]: 45.7 nM

Structure (SMILES): CCCC[C@H](NC(C)=O)C(=O)N[C@H]1CCCCn2cc(nn2)C[C@@H](C(N)=O)NC(=O)[C@H](Cc2c[nH]c3ccccc23)NC(=O)[C@H](CCCNC(=N)N)NC(=O)[C@@H](Cc2ccc(F)cc2)NC(=O)[C@H](Cc2c[nH]cn2)NC1=O [KR-049, Ac-Nle-[Lys(N3)-His-Dphe(4-F)-Arg-Trp-Pra]-NH2] (Ac-[Nle][Lys(N3)]H[dPhe(4-F)]RW[Pra]-NH2; triazole 2-7)
- EC50 [1]: 25.2 nM
- IC50 [1]: 25.2 nM
- EC50 [5]: 0.019 nM
- IC50 [5]: 0.019 nM
- solubility [2]: 9950 µg/mL (≈ 9.33 mM)
- melanin binding ([6]; compared with K173 and K174): enhanced melanin binding
- scleral and retinal exposure ([6]; compared with K173 and K174): decreased scleral and retinal exposure
- corneal permeability ([6]; similar to rabbit study): enhanced corneal permeability
- Topical Ocular Permeability (nM ± SEM) [3]: 23.9 ± 10.8 nM
- EC50 [4]: 16.1 nM

Structure (SMILES): CCCC[C@H](NC(=O)c1cc(O)cc(O)c1)C(=O)N[C@H]1CCCCn2cc(nn2)C[C@@H](C(=O)N[C@@H](CCCC(N)=O)C(N)=O)NC(=O)[C@H](Cc2c[nH]c3ccccc23)NC(=O)[C@H](CCCNC(=N)N)NC(=O)[C@@H](Cc2ccc(F)cc2)NC(=O)[C@H](Cc2c[nH]cn2)NC1=O [KR-071, HyBA-Nle-[Lys(N3)-His-Dphe(4-F)-Arg-Trp-Pra]-Hgln-NH2] ({Benzoyl(3,5-(OH)2)}-[Nle][Lys(N3)]H[dPhe(4-F)]RW[Pra][Aad](NH2)-NH2; triazole 2-7)
- EC50 [1]: 73.9 nM
- IC50 [1]: 73.9 nM
- EC50 [5]: 0.0023 nM
- IC50 [5]: 0.0023 nM
- solubility ([2]; Table 8, read-out: Solubility): 6100 µg/mL (≈ 4.68 mM)
- level at 0.5 h [7]: 2.84 ng/mL
- Topical Ocular Permeability (nM ± SEM) [3]: 2.5 ± 0.2 nM
- EC50 [4]: 103 nM

Structure (SMILES): CCCC[C@H](NC(=O)c1cc(O)cc(O)c1)C(=O)N[C@H]1CCCCn2cc(nn2)C[C@@H](C(N)=O)NC(=O)[C@H](Cc2c[nH]c3ccccc23)NC(=O)[C@H](CCCNC(=N)N)NC(=O)[C@@H](Cc2ccccc2)NC(=O)[C@H](Cc2c[nH]cn2)NC1=O [KR-073, HyBA-Nle-[Lys(N3)-His-DPhe-Arg-Trp-Pra]-NH2] ({Benzoyl(3,5-(OH)2)}-[Nle][Lys(N3)]H[dF]RW[Pra]-NH2; triazole 2-7)
- EC50 [1]: 134 nM
- IC50 [1]: 134 nM
- EC50 [5]: 0.0041 nM
- IC50 [5]: 0.0041 nM
- solubility ([2]; Table 8, read-out: Solubility): 7690 µg/mL (≈ 6.73 mM)
- Topical Ocular Permeability (nM ± SEM) [3]: 12.3 ± 3.8 nM
- EC50 [4]: 13.9 nM
